Key:
[1] = test system: fast food diet (FFD) male C57BL/6 mouse; experiment: 15-day once daily oral Compound 2 and fenofibrate, fast food diet model of fatty liver; assay type: in vivo; conditions: 15 days
Procedure: Once Daily Oral Administration of Compound 2 and Fenofibrate: 15-Day Pharmacology Study Using the Fast Food Diet Model of Fatty Liver in the Male C57BL/6 Mouse
(§1) Purpose: The purpose of this study was to assess the effect of Compound 2 on plasma and liver triglycerides (TG) and molecular biology of liver after 15 days of oral administration (“PO”) of Compound 2 (5 mg/kg QD), fenofibrate (25 mg/kg and 50 mg/kg QD), or the combination (Compound 2 (5 mg/kg, QD)+fenofibrate (50 mg/kg, QD)) in mice fed a diet high in fat, cholesterol, and fructose (the fast-food diet, FFD (Research Diet D12079B)). Mice enrolled in this study were fed a FFD for approximately 9 months prior to study start. Primary endpoints were plasma TG, liver TG, liver ketone bodies, plasma liver enzymes, hepatic oxidative stress and hepatic gene expression of liver X receptorα (LXRα) and PPARα targets, and profibrotic markers by qPCR.

[2] = test system: fast food diet (FFD) male C57B1/6 mouse; experiment: 14-day pharmacology study of Compound 2 and fenofibrate in chow, fast food diet model of fatty liver; assay type: in vivo; conditions: Compound 2 10 mg/kg QD PO, two weeks of dosing
Procedure: Once Daily Compound 2 and Fenofibrate Administered in Chow: 14-Day Pharmacology Study Using the Fast Food Diet Model of Fatty Liver in the Male C57B1/6 Mouse
Purpose: The purpose of this study was to assess the effect of Compound 2 on plasma and liver TG and molecular biology of liver after 10 to 14 days of Compound 2 administered orally (10 mg/kg QD), or fenofibrate (0.1% administration in chow), or the combination in a mice fed a diet high in fat, cholesterol, and fructose (the fast-food diet, FFD). Mice enrolled in this study were fed a fast food diet for approximately 9 months prior to study start. Primary endpoints were plasma triglycerides, liver triglycerides, liver cholesterol, and hepatic gene expression of liver X receptorα (LXRα), and sterol response element binding protein-1c (SREBP1c) target genes by qPCR.

[3] = test system: pro-fibrotic genes colla1 and timp1; experiment: Hepatic mRNA expression by qPCR, 15-day FFD mouse study; assay type: in vivo; conditions: Compound 2 5 mg/kg; fenofibrate 50 mg/kg; QD PO, 15 days
Procedure: as §1

[4] = test system: subjects with steatosis and F1-F3 fibrosis / NASH; conditions: one subject on Compound 1 20 mg given 145 mg fenofibrate after grade 3 hypertriglyceridemia at week 1
Procedure: Ten subjects with steatosis (MRI-PDFF≥10%) and F1-F3 fibrosis (MRE≥2.88 kPa but non-cirrhotic based on FibroText <0.75, historical imaging and liver biopsy) were treated 20 mg Compound 1 for 12 weeks.
Four of the ten subjects were on fish oil or fenofibrate at baseline and continued the concomitant medication for the duration of the study. Throughout the study subjects were monitored for safety (adverse events, laboratory abnormalities), liver biochemistry, serum markers of fibrosis (ELF and its components TIMP-1, hyaluronic acid, PIII-NP) and cell death (CK18 M30 and M65), liver stiffness (MRE) and fat (MRI-PDFF) and the effect on de novo lipogensis was assessed using heavy water labeling.
The four subjects were analyzed in conjunction with eight subjects from the study described in Example 1. These twelve subjects were on fish oil or fibrates for at least six weeks of the study and included those who were on fish oil or fibrates at baseline or who had graded hypertriglyceridemia and were given fish oil or fibrates during the study.

Plasma TG, increase relative to vehicle-treated animals ([1]; Compound 2 5 mg/kg QD PO, 2 h post dose, ad lib fed) [%]	Plasma triglycerides, increase relative to vehicle-treated animals [2] [%]	SMILES	Effect on the above-mentioned parameters (plasma TG, PPARα and LXRα target genes, ALT/AST, liver TG, βOHB, malondialdehyde) ([1]; fenofibrate alone, both 25 and 50 mg/kg QD PO)	Hepatic expression of pro-fibrotic genes [3]	All monitored TG related measurements (total TG, APOB48, VLDL-P, APOC3) [4]
29	15	COc1ccccc1[C@H](Cn1c(=O)n(C(C)(C)C(=O)O)c(=O)c2c(C)c(-c3ncco3)sc21)O[C@H]1CC[C@@H](O)CC1 [Compound 2, 2-[1-[(2R)-2-[(4-hydroxycyclohexyl)oxy]-2-(2-methoxyphenyl)ethyl]-5-methyl-6-(1,3-oxazol-2-yl)-2,4-dioxo-1H,2H,3H,4H-thieno[2,3-d]pyrimidin-3-yl]-2-methylpropanoic acid]			
		CC(C)OC(=O)C(C)(C)Oc1ccc(C(=O)c2ccc(Cl)cc2)cc1 [fenofibrate, Fenofibrate, reference compound]	modest-to-no effect	reduced	improved to less than baseline

Reference: US11963961B2, “Combination therapy comprising an ACC inhibitor” (Gilead Sciences, Inc., priority 2017, dated 2024)
